# Test results reported in patent publication US20130288989A1, “NEW USE OF CHEMICAL INGREDIENTS IN CYNOMORIUM AS PHYTOESTROGEN” (TIANJIN UNIVERSITY OF TRADITIONAL CHINESE MEDICINE, priority 2010, published 2013).
# Target: T1, ERα (Homo sapiens, UniProt P03372)
# T1 construct: expressed in transfected cells; host or cells: Hela cells (ER expression free)
# T1 sequence (P03372 1-595): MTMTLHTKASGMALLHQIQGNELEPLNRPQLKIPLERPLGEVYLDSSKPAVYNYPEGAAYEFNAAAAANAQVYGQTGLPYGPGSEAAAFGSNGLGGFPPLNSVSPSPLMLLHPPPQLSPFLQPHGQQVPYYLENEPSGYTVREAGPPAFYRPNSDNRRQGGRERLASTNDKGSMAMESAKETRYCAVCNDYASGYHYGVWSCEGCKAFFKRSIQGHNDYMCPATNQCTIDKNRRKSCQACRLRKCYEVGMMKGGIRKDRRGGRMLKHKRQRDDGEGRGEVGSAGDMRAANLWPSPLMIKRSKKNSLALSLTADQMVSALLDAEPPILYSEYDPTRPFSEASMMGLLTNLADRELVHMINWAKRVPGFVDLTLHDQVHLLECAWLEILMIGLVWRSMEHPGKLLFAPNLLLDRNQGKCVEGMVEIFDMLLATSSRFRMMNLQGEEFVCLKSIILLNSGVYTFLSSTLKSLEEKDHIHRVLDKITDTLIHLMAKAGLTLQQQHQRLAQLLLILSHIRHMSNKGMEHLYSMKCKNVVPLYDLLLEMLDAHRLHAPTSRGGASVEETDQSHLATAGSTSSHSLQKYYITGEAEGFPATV
# Test: ERα luciferase reporter gene transcription activation in transfected Hela cells
# Assay type: cell-based
# Details: Hela cells, 10^−5 M, 24 h
# Source text: (§1) Actually, estrogens show their biological activity by regulating estrogen responding genetic transcription.
# Formulation of sample solutions of catechin, (−)epicatechin-3-O-gallate, naringenin-4′-O-glucoside, phlorizin, emodin, chrysophanol (separately obtained from Example 1):
# Catechin, (−)epicatechin-3-O-gallate, naringenin-4′-O-glucoside, phlorizin, emodin, chrysophanol in corresponding weights were separately weighed precisely, than added with DMSO for dissolution, the corresponding sample solution high dose groups (10 μM or 1 μM), were diluted in certain times to separately obtain low dose groups (1 μM to 0.001 μM).
# (§2) Under condition of 37° C. and 5% CO2, Hela cells were cultured in phenol red-free high sugar DMEM culture medium containing 10% calf serum in incubator, the cells were spread in 60% density on 96-well plate when cell density was about 90%, each well was added with 150 ul of phenol red-free DMEM culture medium containing 10% serum, cultivation was performed overnight. To each well of the 96-well plate, 100 ul of serum-free DMEM culture medium and 0.4 μg plasmid (ptk-ERE-luc 2 μg, tk-Renila 1 μg, ERα or ERβ 1 μg) were used for transfection. After 6 h of transfection, each well was added with 150 ul of serum-free phenol red-free DMEM culture medium. Three wells were selected form each group, added with 10^−8M estradiol E2, and substance to be tested in different concentrations, 15 ul/well (sample 4-5 concentration gradient groups), continuously cultured under condition of 37° C., 5% CO2 for 24 h. After 24 h, each well was added with 80 μl of cell disruption solution, and the cells were subjected to freeze thawing once to be sufficiently disrupted. As for the cell lysis solution of each well, its activities to firefly luciferase and Renila luciferase were separately measured.
row,SMILES,ERα (% of the control) mean ± S.D.
1,"O=C(O[C@@H]1Cc2c(O)cc(O)cc2O[C@@H]1c1ccc(O)c(O)c1)c1cc(O)c(O)c(O)c1 [(−)Epicatechin-3-O-gallate, (−)epicatechin-3-O-gallate]",171.88 ± 22.57 % of the control

# Same assay, conditions: Hela cells, 10^−5 M, estradiol at 10^−8M
row,SMILES,ERα (% of estradiol)
1,"O=C(O[C@@H]1Cc2c(O)cc(O)cc2O[C@@H]1c1ccc(O)c(O)c1)c1cc(O)c(O)c(O)c1 [(−)Epicatechin-3-O-gallate, (−)epicatechin-3-O-gallate]",(80.79) % of estradiol

# Same assay, conditions: Hela cells, 10^−6 M, 24 h
row,SMILES,ERα (% of the control) mean ± S.D.
1,"O=C(O[C@@H]1Cc2c(O)cc(O)cc2O[C@@H]1c1ccc(O)c(O)c1)c1cc(O)c(O)c(O)c1 [(−)Epicatechin-3-O-gallate, (−)epicatechin-3-O-gallate]",192.40 ± 27.72 % of the control

# Same assay, conditions: Hela cells, 10^−6 M, estradiol at 10^−8M
row,SMILES,ERα (% of estradiol)
1,"O=C(O[C@@H]1Cc2c(O)cc(O)cc2O[C@@H]1c1ccc(O)c(O)c1)c1cc(O)c(O)c(O)c1 [(−)Epicatechin-3-O-gallate, (−)epicatechin-3-O-gallate]",(90.43) % of estradiol

# Same assay, conditions: Hela cells, 10^−7 M, 24 h
row,SMILES,ERα (% of the control) mean ± S.D.
1,"O=C(O[C@@H]1Cc2c(O)cc(O)cc2O[C@@H]1c1ccc(O)c(O)c1)c1cc(O)c(O)c(O)c1 [(−)Epicatechin-3-O-gallate, (−)epicatechin-3-O-gallate]",200.50 ± 13.72 % of the control

# Same assay, conditions: Hela cells, 10^−7 M, estradiol at 10^−8M
row,SMILES,ERα (% of estradiol)
1,"O=C(O[C@@H]1Cc2c(O)cc(O)cc2O[C@@H]1c1ccc(O)c(O)c1)c1cc(O)c(O)c(O)c1 [(−)Epicatechin-3-O-gallate, (−)epicatechin-3-O-gallate]",(94.24) % of estradiol

# Same assay, conditions: Hela cells, 10^−8 M, 24 h
row,SMILES,ERα (% of the control) mean ± S.D.
1,"O=C(O[C@@H]1Cc2c(O)cc(O)cc2O[C@@H]1c1ccc(O)c(O)c1)c1cc(O)c(O)c(O)c1 [(−)Epicatechin-3-O-gallate, (−)epicatechin-3-O-gallate]",170.00 ± 13.87 % of the control

# Same assay, conditions: Hela cells, 10^−8 M, estradiol at 10^−8M
row,SMILES,ERα (% of estradiol)
1,"O=C(O[C@@H]1Cc2c(O)cc(O)cc2O[C@@H]1c1ccc(O)c(O)c1)c1cc(O)c(O)c(O)c1 [(−)Epicatechin-3-O-gallate, (−)epicatechin-3-O-gallate]",(79.90) % of estradiol

# Same assay, conditions: Hela cells, 10^−9 M, 24 h
row,SMILES,ERα (% of the control) mean ± S.D.
1,"O=C(O[C@@H]1Cc2c(O)cc(O)cc2O[C@@H]1c1ccc(O)c(O)c1)c1cc(O)c(O)c(O)c1 [(−)Epicatechin-3-O-gallate, (−)epicatechin-3-O-gallate]",121.95 ± 10.76 % of the control

# Same assay, conditions: Hela cells, 10^−9 M, estradiol at 10^−8M
row,SMILES,ERα (% of estradiol)
1,"O=C(O[C@@H]1Cc2c(O)cc(O)cc2O[C@@H]1c1ccc(O)c(O)c1)c1cc(O)c(O)c(O)c1 [(−)Epicatechin-3-O-gallate, (−)epicatechin-3-O-gallate]",(57.32) % of estradiol

# Same assay, conditions: luciferase reporter gene
SMILES,concentration at which the transcriptional activity of ERα is agonized,concentration of the highest ERα transcription activity
"O=C(O[C@@H]1Cc2c(O)cc(O)cc2O[C@@H]1c1ccc(O)c(O)c1)c1cc(O)c(O)c(O)c1 [(−)Epicatechin-3-O-gallate, (−)epicatechin-3-O-gallate]",10^−8-10^−5 M,10^−7 M

# Test system: estrogen receptor
# Test: Estrogen receptor activation test: overall estrogen activity and ERβ versus ERα comparison
# Assay type: cell-based
# Details: Hela cells, sample 10^−5 M
# Protocol: as §1, §2
row,SMILES,ERβ/ERα (both % of estradiol at 10^−8M)
1,"O=C(O[C@@H]1Cc2c(O)cc(O)cc2O[C@@H]1c1ccc(O)c(O)c1)c1cc(O)c(O)c(O)c1 [(−)Epicatechin-3-O-gallate, (−)epicatechin-3-O-gallate]",0.94

# Same assay, conditions: Hela cells, sample 10^−6 M
row,SMILES,ERβ/ERα (both % of estradiol at 10^−8M)
1,"O=C(O[C@@H]1Cc2c(O)cc(O)cc2O[C@@H]1c1ccc(O)c(O)c1)c1cc(O)c(O)c(O)c1 [(−)Epicatechin-3-O-gallate, (−)epicatechin-3-O-gallate]",0.90

# Same assay, conditions: Hela cells, sample 10^−7 M
row,SMILES,ERβ/ERα (both % of estradiol at 10^−8M)
1,"O=C(O[C@@H]1Cc2c(O)cc(O)cc2O[C@@H]1c1ccc(O)c(O)c1)c1cc(O)c(O)c(O)c1 [(−)Epicatechin-3-O-gallate, (−)epicatechin-3-O-gallate]",0.93

# Same assay, conditions: Hela cells, sample 10^−8 M
row,SMILES,ERβ/ERα (both % of estradiol at 10^−8M)
1,"O=C(O[C@@H]1Cc2c(O)cc(O)cc2O[C@@H]1c1ccc(O)c(O)c1)c1cc(O)c(O)c(O)c1 [(−)Epicatechin-3-O-gallate, (−)epicatechin-3-O-gallate]",0.97
